Data reported in article PMC4252588 (FEBS letters, 2014).
Where two headings read alike, the source gives them in different places.

Assays:
Tulahuen CYP51 [1] = molecular target: T1, Tulahuen CYP51 (Trypanosoma cruzi, UniProt Q7Z1V1); test: Reconstituted CYP51 activity assay, eburicol 14α-demethylation; type: biochemical
Y-CYP51A [2] = molecular target: T2, Y-CYP51A (Trypanosoma cruzi, UniProt Q7Z1V1, P355S); test: Type 2 spectral response titration with inhibitors; type: binding; details: calculated from the Y-CYP51A titration curves; [P450] 0.4 µM
[3] = system: Y strain T. cruzi amastigotes; test: Cellular infection assay, human stage; type: cell-based, Trypanosoma cruzi
[4] = system: Y strain T. cruzi epimastigotes; test: Insect stage; type: cell-based, Trypanosoma cruzi; details: insect stage of Y T. cruzi; 1 µM
Tulahuen CYP51 [5] = molecular target: T1, Tulahuen CYP51; details: Tulahuen T. cruzi CYP51; cited from earlier work
T. brucei CYP51 = details: cited from earlier work
L. infantum CYP51 = details: cited from earlier work
Tulahuen T. cruzi = details: cells infected by Tulahuen T. cruzi; cited from earlier work
[6] = system: Tulahuen strain of T. cruzi; details: mice infected with Tulahuen strain; cited from earlier work
Y-CYP51A [7] = molecular target: T2, Y-CYP51A; test: Reconstituted CYP51 activity assay, eburicol 14α-demethylation; type: biochemical
Tulahuen CYP51 [8] = molecular target: Tulahuen CYP51 (Trypanosoma cruzi, UniProt Q7Z1V1, A9G); test: Type 1 spectral response, substrate binding
Y-CYP51A [9] = molecular target: T2, Y-CYP51A; test: Type 1 spectral response, substrate binding
[10] = Tulahuen CYP51, inhibitor/enzyme/substrate 1:1:100, 1 h

O=C(N[C@@H](Cn1ccnc1)c1ccc(-c2ccc(F)cc2)cc1F)c1ccc(-c2nnc(-c3ccccc3)o2)cc1 [VFV, (R)-N-(1-(3,4'-difluorobiphenyl-4-yl)-2-(1H-imidazol-1-yl)ethyl)-4-(5-phenyl-1,3,4-oxadiazol-2-yl)benzamide]
Inhibition at I/E/S molar ratio 1:1:100, one hour reaction (Tulahuen CYP51 [1]; [10]): 100% | Apparent binding efficiency (Y-CYP51A [2]): 87 | Antiparasitic potency compared with VNI ([3]; human stage of Y T. cruzi, H9C2 cells, 48 h): higher antiparasitic potency | Antiparasitic potency compared with VNI [4]: higher antiparasitic potency | Inhibitory potency (Tulahuen CYP51 [5]): equally potent | Inhibitory potency (T. brucei CYP51): equally potent | Inhibitory potency (L. infantum CYP51): equally potent

O=C(N[C@@H](Cn1ccnc1)c1ccc(Cl)cc1Cl)c1ccc(-c2nnc(-c3ccccc3)o2)cc1 [VNI, (R)-N-(1-(2,4-dichlorophenyl)-2-(1H-imidazol-1-yl)ethyl)-4-(5-phenyl-1,3,4-oxadiazol-2-yl)benzamide]
Inhibition at I/E/S molar ratio 1:1:100, one hour reaction (Tulahuen CYP51 [1]): 100% | Inhibition of the enzyme (Tulahuen CYP51 [1]): completely inhibited | Apparent binding efficiency (Y-CYP51A [2]): 9 | EC50 ([3]; Trypanosoma cruzi, Vero, in Homo sapiens): > 5 nM | Amastigotes within host cells after treatment ([3]; cardiomyoblasts and Vero cells, up to 1 µM): some trace of amastigotes being observed | Concentration that completely eradicates the parasite (Tulahuen T. cruzi): 8 nM | EC50 (Tulahuen T. cruzi): 1.3 nM | Outcome of treatment [6]: cure both the acute and chronic models of Chagas disease

C=C(CCC(C)C1CCC2(C)C3=C(CCC12C)C1(C)CCC(O)C(C)(C)C1CC3)C(C)C (stereo not drawn) [Substrate, eburicol]
Turnover number (Tulahuen CYP51 [1]; Tulahuen CYP51): 5.6±0.3 nmol substrate/nmol P450 /min | Turnover number (Y-CYP51A [7]): 2.0±0.2 nmol substrate/nmol P450 /min | Kd (Tulahuen CYP51 [8]): 800 nM | ΔA (% low-to-high spin transition) (Tulahuen CYP51 [8]; Tulahuen CYP51): 36% | Kd (Y-CYP51A [9]): 1540 nM | ΔA (% low-to-high spin transition) (Y-CYP51A [9]; Y-CYP51A): 48%

O=C(N[C@@H](Cn1cncn1)c1ccc(Cl)cc1Cl)c1ccc(-c2nnc(-c3ccccc3)o2)cc1 [VNT, (R)-N-(1-(2,4-dichlorophenyl)-2-(1H-1,2,4-triazol-1-yl)ethyl)-4-(5-phenyl-1,3,4-oxadiazol-2-yl)benzamide]
Inhibition of the enzyme (Tulahuen CYP51 [1]; Tulahuen CYP51, equimolar amounts of inhibitor): completely inhibited | Inhibition at I/E/S molar ratio 1:1:100, one hour reaction (Tulahuen CYP51 [1]; [10]): 100% | Apparent binding efficiency (Y-CYP51A [2]): 2 | Inhibitory potency (Tulahuen CYP51 [5]): as potent as VNI | Inhibitory potency (T. brucei CYP51): weaker inhibitory effect | Inhibitory potency (L. infantum CYP51): weaker inhibitory effect
